Data published in US12606795B2 (Thankcome Biological Science and Technology (SuZhou) Co., …, priority 2023, dated 2026).
In brackets after ≈: the same amount, converted by molar mass.

Tests used:
[1] = system: AOM/DSS-induced colorectal carcinoma mice; experiment: AOM/DSS-induced colorectal carcinoma mice; format: in vivo, C57BL/6 mice
Procedure: 6-week-old SPF male C57BL/6 mice, purchased from the Chongqing Lepitt Biotechnology Co., Ltd. The mice were raised in a standardized laboratory with room temperature of 25° C.±2° C., relative humidity of 50%±5%, and 12 h of light/12 h of darkness. […] In experiments, mice were given free feeding and water. On the first day of experimental molding, the mice in the model group, the aspirin group, and the AKKP group were injected intraperitoneally with AOM at a dosage of 10 mg/kg, and were fed with 2.5% DSS aqueous solution at weeks 2, 5, and 8. The mice in the normal group and model group were intragastrically administrated with sterile saline; the mice in the aspirin group were intragastrically administrated with an aspirin solution at 67 mg/kg, and the mice in the AKKPL group and the AKKPH group were intragastrically administrated at dosages of 1×10^8 CFU/kg and 1×10^9 CFU/kg, respectively, for 10 consecutive weeks. In the experiments, diet, activity, vigor and hair conditions, and fecal properties of the mice in each group were observed. Each mouse was weighed per week and the body weights were recorded. After the experiments, blood was collected from eyeballs and the mice were sacrificed by removing their vertebrae. The mice were dissected to take out large intestine tissue, spleen tissue, liver tissue, and the kidney tissue for later testing.
After the mice were dissected, the large intestine tissue, the spleen tissue, the liver tissue, and the kidney tissue were taken out and weighed. An organ Index was calculated using a formula, while the colorectum length of the mouse was measured and the colorectal tumorigenesis number of the mouse was recorded. Organ index=organ weight (mg)/mouse body weight (g).
After being fixed in a tissue fixative for 24 h, the rectum of the mouse was transferred into 95% ethanol for dehydration, and then the dehydrated rectum was placed in xylene to replace alcohol in the tissue to make the rectum tissue transparent. Then, the treated rectum was embedded with paraffin. The embedded rectum was sectioned by a microtome, and then a tissue section was stained with H&E and fixed, obtaining a pathologic tissue section, with a thickness of 2 to 3 μm, of the rectum of the mouse, and the pathologic tissue section was observed under the upright microscope.
Whole blood was collected from the eyeballs, and centrifuged at 4000 r/min and 4° C. for 10 min to separate supernatant serum. According to the instruction of the ELISA kit, the levels of IL-1β, IL-6, IFN-γ, iNOS and NF-κB in the serum of the mouse were determined.
About 50 mg colon tissue was taken and cleaned with saline, and the cleaned colon tissue was placed in a homogenization tube containing 6 zirconia beads, and 500 μL TRIzol™ reagent was added to extract RNA in the tissue. The purity and concentration of RNA were determined using the micro-spectrophotometer. […] Then, after cDNA was generated by reverse transcription, a reaction system containing 1 μL cDNA was prepared. Other reagents include 10 μL qPCR SYBR Green Master Mix, […] sterile distilled water, 1 μL forward primer and 1 μL reverse primer. qRT-PCR amplification reaction conditions: 95° C., 10 s, 60° C., 30 s, 40 cycles; 95° C., 15 s, 60° C., 60 s, 95° C., 15 s. Taking Eef2 as an internal reference gene, the mRNA relative expression of each target gene was calculated according to formula 2^−ΔΔCt.

[2] = system: Bacteroides fragilis ATCC 25285; experiment: Drug sensitivity of quality-control strain, micro broth dilution method (CLSI); format: cell-based; details: ATCC25285
Procedure: Bacteroides fragilis ATCC 25285 was selected as a quality-control strain. The sensitivity of […] to ampicillin, ceftriaxone, cefotaxime, meropenem, tetracycline, moxifloxacin, and chloramphenicol was determined using an agar dilution method recommended by CLSI. The quality-control strain B. fragilis ATCC 25285 was determined using a micro broth dilution method recommended by CLSI.

[3] = system: AKK PROBIO; experiment: Drug sensitivity, agar dilution method (CLSI); format: cell-based, Akkermansia muciniphila; details: for MIC: Akkermansia muciniphila, read-out: Test strain AKK PROBIO MIC, agar dilution method; for Test strain AKK PROBIO Judgment result: judged by CLSI S/I/R criterion of Table 6
Procedure: Referring to the Clinical and Laboratory Standards Institute (CLSI) method [CLSI. Performance Standards for Antimicrobial Susceptibility Testing; 26th ed. CLSI supplement M100S.
The sensitivity of AKK PROBIO to ampicillin, ceftriaxone, cefotaxime, meropenem, tetracycline, moxifloxacin, and chloramphenicol was determined using an agar dilution method recommended by CLSI. The quality-control strain B. fragilis ATCC 25285 was determined using a micro broth dilution method recommended by CLSI.

[4] = system: S. typhimurium TA98; details: TA98 −S9
Procedure: (§1) Bacterial strains used were Salmonella typhimurium TA97a (National Center for Type Culture Collection NTCC, 506391), S. typhimurium TA98 (NTCC, 506392), S. typhimurium TA100 (NTCC, 506395), S. typhimurium TA1535 (NTCC, 506396), and Escherichia coli WP2 uvrA (CHI Scientific, Co., Ltd., product number: 6-1705). To prepare a drug delivery formulation, distilled water was used as a carrier to prepare a suspension (100 mg/mL) for a test item. […] Therefore, bacteria in samples for the test item were removed by a mechanical means. In the process of mixing the formulation, any soluble components for the test item was dissolved in the carrier, and then, residual bacteria were removed by centrifugation (4° C.; 8000 rpm; 10 min). After centrifugation, liquid supernatant was removed and sterile filtration was performed with a 0.22 μm filter.
(§2) In the confirmatory mutation research, detection was performed at 15.81, 50, 158.1, 500, 1581, and 5000 μg/plate. The maximum concentration was recommended by current regulations and guidelines. […] The survival rate of test bacterial cells was checked through plate experiments in each test. If there is a dosage-related increase in the number of revertants, it is considered that the test item has mutagenicity, and/or a reproducible biology-related positive reaction targeting at least one dosage group occurs in at least one strain with or without metabolic activation.

[5] = system: Salmonella typhimurium TA97a; details: TA97a −S9
Procedure: as §1, §2

[6] = system: gouty arthritis mouse model; experiment: Gouty arthritis mouse model (sodium urate); format: in vivo, BALB/c mice; details: glucosamine sulfate 195 mg/kg. bw intragastric
Procedure: Mice were randomly divided into 5 groups: a normal group, a model group, a glucosamine sulfate (positive control) group, an Akk low-concentration experimental (Akk-L) group, and an Akk high-concentration experimental (Akk-H) group, with 10 mice in each group. The mice in the normal group and the mice in the model group were intragastrically administered with distilled water at a dosage of 0.1 mL/10 g. bw per day. The mice in the glucosamine sulfate group were intragastrically administered with glucosamine sulfate at a dosage of 195 mg/kg. bw. The mice in the Akk-L group and the mice in the Akk-H group were intragastrically administered with Akk experimental bacteria at a dosage of 10^8 CFU/kg. bw and 10^9 CFU/kg. bw, respectively, for 7 consecutive days. Then, all experimental mice were anesthetized with isoflurane, and then 50 μL of PBS solution was injected into the tibiotarsal joint (ankle joint) of the right paw of the mouse in the normal group. 50 mg of sodium urate was added to 1 mL of PBS buffer to prepare a suspension. 50 μL of suspension was injected into the tibiotarsal joints (ankle joint) of the right paws of the rest of the mice except the mice in the […] to induce gouty arthritis. After the mice woke up, they were intragastrically administrated with a corresponding sample for 7 d still at the dosage of the sample intragastrically administrated in the previous 7 days.
0.1 g of mouse ankle joint tissue was weighed and added into […] containing 0.9 mL of saline and mixing was performed. Subsequently, mixed tissue samples were centrifuged at a speed of 4000 rpm for 10 min to obtain liquid supernatant. Next, related indicators in the liquid supernatant of a tissue homogenate was determined using assay kits for MPO, SOD, GSH, and MDA.
A taken-out whole blood sample of the mouse was centrifuged at 4° C. at 4000 rpm for 10 min to obtain supernatant serum. Serum-related inflammatory indicators were determined using the ELISA kit for IL-6, IL-10, IL-1β, and TNF-α.

[7] = qRT-PCR, aspirin 67 mg/kg or AKKPH 1×10^9 CFU/kg, vs model group, P<0.05
[8] = qRT-PCR, vs model group, P<0.05

## CC(=O)Oc1ccccc1C(=O)O [aspirin, reference compound]
[1]; AOM/DSS mice, intragastric 10 weeks, aspirin 67 mg/kg, AKKP 1×10^8 and 1×10^9 CFU/kg
  body weight loss: alleviate the body weight loss in the mice to a certain extent
[1]; ELISA, vs model group
  content of IL-6 in serum: reduced
[1]; ELISA, vs model group, P<0.05
  content of IFN-γ in serum: reduced
  content of IL-1β in serum: lower than that in the model group
  content of NF-κB in serum: reduced
  content of iNOS in serum: reduced
[1]; aspirin 67 mg/kg intragastric 10 weeks, model group 4.34±0.35, normal 2.81±0.34
  colorectum weight/length (ratio): 3.17±0.50
[1]; aspirin, AKKPL and AKKPH groups
  pathological morphology of rectum tissue (H&E): no obvious erosion found in the rectal mucosa
[1]; between the five groups, P>0.05
  kidney index / renal tissue: no significant difference
[1]; [7]
  mRNA relative expression of IκBβ in colon tissue: significantly reduced
  mRNA relative expression of p50 in colon tissue: significantly reduced
[1]; [8]
  mRNA relative expression of Bid in colon tissue: significantly increased
  mRNA relative expression of Bim in colon tissue: significantly increased
  mRNA relative expression of caspase-9 in colon tissue: significantly increased
  mRNA relative expression of p52 in colon tissue: significantly reduced
  mRNA relative expression of p65 in colon tissue: significantly reduced
[1]; vs model group, P<0.05
  colorectal tumorigenesis number: significantly smaller
  liver weight (liver index): reduced
  spleen weight (spleen index): reduced
[1]; vs model group, P<0.05, aspirin 67 mg/kg, AKKP 1×10^8 and 1×10^9 CFU/kg, 10 weeks
  colorectum length: relatively long

## CO/N=C(\C(=O)N[C@@H]1C(=O)N2C(C(=O)O)=C(COC(C)=O)CS[C@H]12)c1csc(N)n1 [Cefotaxime, cefotaxime]
[2]
  MIC: 32 µg/mL (≈ 70.3 µM)
[3]
  MIC: 16 µg/mL (≈ 35.1 µM)
  Test strain AKK PROBIO Judgment result: Sensitive
[3]; listed as cefotaxime
  Test strain AKK PROBIO Judgment result: sensitive

## CC1(C)S[C@@H]2[C@H](NC(=O)[C@H](N)c3ccccc3)C(=O)N2[C@H]1C(=O)O [Ampicillin, ampicillin]
[2]
  MIC: 64 µg/mL (≈ 183 µM)
[3]
  MIC: < 0.25 µg/mL
  Test strain AKK PROBIO Judgment result: Sensitive
[3]; listed as ampicillin
  Test strain AKK PROBIO Judgment result: sensitive

## O=C(N[C@H](CO)[C@H](O)c1ccc([N+](=O)[O-])cc1)C(Cl)Cl [Chloramphenicol, chloramphenicol]
[2]
  MIC: 8 µg/mL (≈ 24.8 µM)
[3]
  MIC: 4 µg/mL (≈ 12.4 µM)
  Test strain AKK PROBIO Judgment result: Sensitive
[3]; listed as chloramphenicol
  Test strain AKK PROBIO Judgment result: sensitive

## CO/N=C(\C(=O)N[C@@H]1C(=O)N2C(C(=O)O)=C(CSc3nc(=O)c(=O)[nH]n3C)CS[C@H]12)c1csc(N)n1 [Ceftriaxone, ceftriaxone]
[2]
  MIC: 128 µg/mL (≈ 231 µM)
[3]
  MIC: 8 µg/mL (≈ 14.4 µM)
  Test strain AKK PROBIO Judgment result: Sensitive
[3]; listed as ceftriaxone
  Test strain AKK PROBIO Judgment result: sensitive

## C[C@@H](O)[C@H]1C(=O)N2C(C(=O)O)=C(S[C@@H]3CN[C@H](C(=O)N(C)C)C3)[C@H](C)[C@H]12 [Meropenem, meropenem]
[2]
  MIC: 0.25 µg/mL (≈ 0.652 µM)
[3]
  MIC: 0.125 µg/mL (≈ 0.326 µM)
  Test strain AKK PROBIO Judgment result: Sensitive
[3]; listed as meropenem
  Test strain AKK PROBIO Judgment result: sensitive

## CN(C)c1ccc(N=NS(=O)(=O)[O-])cc1.[Na+] [Positive control 1, fenaminosulf]
[4]
  Number of revertant mutants per plate (mean ± standard deviation): 1525.00
[5]
  Number of revertant mutants per plate (mean ± standard deviation): 1169.4

## CN(C)[C@@H]1C(O)=C(C(N)=O)C(=O)[C@@]2(O)C(O)=C3C(=O)c4c(O)cccc4[C@@](C)(O)[C@H]3C[C@@H]12 [Tetracy cline, tetracycline]
[2]
  MIC: 0.5 µg/mL (≈ 1.13 µM)
[3]
  MIC: 2 µg/mL (≈ 4.5 µM)

## N[C@H]1C(O)O[C@H](CO)[C@@H](O)[C@@H]1O.O=S(=O)(O)O (stereo partly shown) [Glucosamine sulfate, glucosamine sulfate, reference compound]
[6]; model group 1.07, normal 6.07
  SOD in mouse ankle joint tissue: 2.50 ± 0.40 U/mg
[6]; model group 2.49, normal 0.38
  MPO in mouse ankle joint tissue: 1.82 ± 0.17 U/g
[6]; model group 18.06, normal 47.05
  GSH in mouse ankle joint tissue: 31.14 ± 1.66 mg/g
[6]; model group 24.97, normal 12.66
  IL-1β in serum of mice: 21.15 ± 1.22 ng/mL
[6]; model group 26.69, normal 5.74
  MDA in mouse ankle joint tissue: 20.31 ± 1.52 nmol/mg
[6]; model group 36.03, normal 27.20
  IL-10 in serum of mice: 32.84 ± 1.94 ng/mL
[6]; model group 90.05, normal 52.97
  IL-6 in serum of mice: 66.85 ± 4.90 ng/mL
[6]; model group 249.41, normal 117.58
  TNF-α in serum of mice: 204.43 ± 15.32 ng/mL
